From patent US10519132B2, “Isocorydine derivatives, preparation method and use thereof” (Lanzhou Institute of Chemical Physics, Chinese Academy of …, priority 2017, dated 2019) come the findings set out here.

Experiment [1] concerns C-Myc, Ki-67, CylinD1, β-Catenin protein. Nature of the experiment: Western blotting, protein expression in HepG2 cells. In kind it is cell-based, human. The conditions noted are these: sorafenib 4 μg/mL, high FICD dosage 20 μg/mL, combination 4 μg/mL sorafenib+10 μg/mL FICD. How it is done: (§1) Method: Gel electrophoresis of protein samples. Gel formulation: All components were added to a small beaker according to a formulation of a separation gel, uniformly mixed with slightly shaking to prevent the generation of bubbles, quickly applied to a seam of a glass plate with a 1 mL pipette, and then blocked with double distilled water to prevent oxidation. After 30 min, the separation gel solidified, the double distilled water thereof was poured off, waster was suctioned with a filter paper, a 5% concentration gel was formulated, TEMED was finally loaded onto the glass plate, and a 1.0 mm comb was inserted into the concentration gel and placed at room temperature for 30 min. The comb was slightly, vertically, and carefully pulled up, various groups of 20 μL protein samples were pipetted with a microsyringe, an equal volume of a loading buffer and an equal volume of a loading buffer containing 3 μL of Marker were separately added to a loading well, an electrophoresis instrument was switched on after electrodes were plugged, gels were run at 75V for 30 min, and the voltage was changed to 120V and gels were run for 2 h when bromophenol blue reaches the separation gel. Membrane transfer: A PVDF membrane having a suitable size was cut according to the size of the gel, placed in a methanol solution for 1 min, lifted, and placed and soaked together with a well cut filter paper in a previously precooled membrane transfer buffer. A sponge pad, three layers of filter paper, a gel, three layers of filter paper, and a sponge pad, in this order from top to bottom, were placed in a membrane transfer tank, and a precooled membrane transfer buffer was then added. Several ice bags were placed circumferentially to prevent an excessively hot external environment, and electrodes were plugged and membrane transfer was performed at a constant current of […] for 2.5 hours. Blocking and incubation of antibodies: A transferred membrane was cut into desired bands, which were placed in a blocking solution of 5% skim milk powder, placed on a shaker, and shaken at room temperature at a low speed for 1 h. A primary antibody was diluted with the blocking solution, a corresponding antibody was pipetted and added to a zip lock bag, the PVDF membrane was then placed in the antibody dilution, bubbles in the zip lock bag were evacuated, and the zip lock bag was sealed and placed in a refrigerator at 4° C. overnight. The membrane was withdrawn from the zip lock bag on the second day, and placed in a clean dish. A TBST solution was added and washed 3 times on a low-speed shaker, 10 min for each time. […]
On the technique in general: A western blot detects proteins with antibodies after separation by electrophoresis.

Experiment [2] concerns human gastric cancer cell strain MGC-803. Nature of the experiment: MTT growth inhibition on MGC-803.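 Also: adherent cells exposed to compound over a concentration gradient for 24, 48 and 72 h, MTT absorbance at 490 nm, inhibition relative to untreated control wells.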 To be noted: Homo sapiens.
Method: (§2) By using an MTT method, a sample solution to be tested was added to a 96-well plate in which cancer cells were adherently grown. Culturing was performed for a certain period, and the growth inhibition effect of a compound on a human cancer cell strain for primary screening was measured to determine the anti-cancer activity of the compound.
(§3) Cell culture: A cell incubator was set to conditions of 37° C., 5% CO2, and a saturated humidity, cells were cultured under these conditions, and the cell medium was a DMEM complete medium, wherein 10% fetal bovine serum, 100 IU/mL penicillin, and 100 μg/mL streptomycin were comprised.
(§4) The single cell suspension was diluted to 5×10^3/100 μL after counting, inoculated on a 96-well cell culture plate (triplicate), and adherently cultured overnight;
(§5) After 24 h of adhesion, the complete medium was discarded, 100 μL-sample-solutions to be tested having different concentrations were sequentially added to the 96-well plate according to a concentration gradient, and incubations were continued for 24 h, 48 h, and 72 h;
(§6) The culture liquid was discarded, a 0.5 mg/mL MTT diluted working liquid was added, and incubation was performed for 4 h by placing in an incubator;
(§7) The culture liquid was discarded, 100 μL of DMSO was added, low-speed oscillation was performed for 10 min by placing on a shaker, and the spectrophotometric value of each well was measured at a wavelength of 490 nm by using a microplate reader. Statistical analysis was performed and tumor cell growth inhibition rate was calculated according to the equation: Growth inhibition rate=(OD value of control group−OD value of experimental group)/OD value of control group.
(§8) Culturing was performed for a certain period, the growth inhibition effect of a compound on 3 human cancer cell strains for primary screening was measured to determine the anti-cancer activity of the compound, and a growth inhibition curve was plotted.
In another experiment the test system is human brain glioma U251. The experiment in a line: MTT growth inhibition on U251. In kind it is cell-based. To be noted: U-251, after 48 h of action.
The next experiment relates to liver cancer cells. The experiment in a line: MTT growth inhibition on liver cancer cells. The class given is cell-based. To be noted: Homo sapiens.
Experiment [3] concerns human liver cancer cell strain HepG2. The experiment in a line: MTT growth inhibition on HepG2.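 Also: adherent cells in 96-well plates treated with a concentration series for 24, 48 or 72 h, MTT absorbance read at 490 nm, inhibition computed relative to untreated control wells.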 In kind it is cell-based. To be noted: Homo sapiens, read-out: IC50 HepG2.
Method: as §2, §3, §4, §5, §6, §7, §8
The subject of the next experiment is Vimentin. The experiment in a line: Western blotting, Vimentin expression in HepG2 cells. In kind it is cell-based, human. To be noted: FICD experiment (FIG. 12). How it is done: as §1
Experiment [4] deals with ascites hepatoma H22 induced solid tumor. The experiment in a line: In vivo tumor growth inhibition in mice bearing H22. Also on record: species or system white Kunming mice. The conditions noted are these: for Tumor inhibition rate (%): Table 5.

Structures are written as SMILES. Converted amounts (≈) assume the structure as drawn. Read-outs that look alike come from different tables or passages of the source.

Method for human brain glioma U251: as §2, §3
(§9) The single cell suspension was diluted to 5×10^3/100 μL after counting, inoculated on a 96-well cell culture plate (triplicate), and adherently cultured overnight; […]
as §7
Method for liver cancer cells: as §2, §3, §9, §7

What is called IC50 is the concentration that gives 50% inhibition. Consider `COc1cc(NC(=O)Nc2ccc(Cl)c(C(F)(F)F)c2)c2c(c1O)-c1c(OC)c(OC)cc3c1C(C2)N(C)CC3` (centres unmarked) [Compound 1], for which the “expressions of C-Myc, Ki-67, CylinD1 and β-Catenin protein compared to the blank group” value in experiment [1] was “significantly reduced”. The half-inhibitory concentration (IC50) was 15.6 ± 2.4 µg/mL in experiment [2] (MGC-803, 48 h, read-out: IC50 MGC-803, after 48 h of action); 16.6 µM in experiment [2] (MGC-803, read-out: IC50 MGC-803, Table 1, MTT); 16.6 µM in experiment [2] (MGC-803, read-out: IC50 MGC-803, Table 2, MTT); 16.8 ± 0.28 µg/mL (≈ 29.1 µM) in the experiment with human brain glioma U251; 10 to 20 µg/mL (≈ 17.3 to 34.6 µM) with liver cancer cells; 10.1 ± 1.2 µg/mL in experiment [3] (HepG2, 48 h, after 48 h of action). The 50% inhibitory concentration (IC50) in experiment [3] (HepG2, Table 1, MTT) stood at 17.2 µM; in experiment [3] (HepG2, Table 2, MTT) it was 17.2 µM. Besides, the Vimentin expression entry with Vimentin is on record as “significantly increased”. In addition, the “tumor inhibition rates for three administration dosages” value in experiment [4] (Example 25, 150, 100 and 50 mg/Kg, intragastric or intraperitoneal injection) is listed as at least 40%. The “Tumor inhibition rate (%)” value in experiment [4] (intragastric administration, high dosage 150 mg/Kg) was found to be 53.4%; in experiment [4] (intragastric administration, low dosage 50 mg/Kg) it was 40.1%; in experiment [4] (intragastric administration, middle dosage 100 mg/Kg), 48.2%; in experiment [4] (intraperitoneal injection, high dosage 150 mg/Kg), 53.0%; in experiment [4] (intraperitoneal injection, low dosage 50 mg/Kg), 40.3%; in experiment [4] (intraperitoneal injection, middle dosage 100 mg/Kg), 46.3%.
